According to patent publication US20250008959A1, “HERBICIDES AND USE THEREOF” (Projini Agchem LTD, priority 2021, published 2025):
pIC50, pKd: −log10 of the molar value. Read-outs that look alike come from different tables or passages of the source.

Assays:
[1] = molecular target: T1, AtOASS (O-acetyl serine sulfhydrylase from Arabidopsis thaliana) (Arabidopsis thaliana, UniProt P47998); assay: Isothermal titration calorimetry (ITC) binding to OASS; details: OASS titrated into compound in ITC cell; single binding model
T1 construct: GST (N, cleaved yes); made in house; host or cells: E. coli Rosetta (DE3)
T1 sequence (P47998 whole entry): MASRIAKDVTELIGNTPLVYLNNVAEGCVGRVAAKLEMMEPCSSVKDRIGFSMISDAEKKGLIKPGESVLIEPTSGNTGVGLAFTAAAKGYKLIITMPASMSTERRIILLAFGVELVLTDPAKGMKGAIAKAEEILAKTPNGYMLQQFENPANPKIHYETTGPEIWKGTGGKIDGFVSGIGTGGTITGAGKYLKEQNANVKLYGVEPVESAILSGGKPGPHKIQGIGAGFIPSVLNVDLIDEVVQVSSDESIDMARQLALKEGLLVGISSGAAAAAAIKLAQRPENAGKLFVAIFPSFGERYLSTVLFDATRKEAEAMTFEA
Excerpt: To evaluate the ability of the molecules to bind AtOASS (O-acetyl serine sulfhydrylase from Arabidopsis thaliana), the protein was placed in the ITC syringe and was titrated with the molecules that were placed in the ITC cell (see Examples section below). The direct dissociation binding constant (Kd) was then extracted from the binding curve using a single binding model, wherein a low Kd value corresponds to a stronger binding affinity.
To evaluate the binding of the small molecules to the enzyme OASS, the purified protein was placed in a 6-8 MWCO dialysis bag in 30 mM phosphate buffer, 30 mM NaCl, 1 mM TCEP, and 5% dimethyl sulfoxide. Sequential buffer exchange dialyses were executed for 12 hours each at 4° C. until dilution of >10,000 was achieved. Before the execution of the ITC binding experiment, the OASS was placed in the ITC syringe at a concentration of 400 μM and each of the small molecules was dissolved in the same dialysis buffer to a final concentration of 40 μM in the ITC cell. ITC experiments were conducted by titrating the OASS to the compounds in the cell. The ITC binding constant was evaluated using the build-in analysis software.
The designed de-novo herbicidal compounds were synthesized and evaluated for their in vitro and in planta activity. After dissolving the molecules to a stock of 50 mM in DMSO, binding and competition with the SAT-derived peptides were evaluated using ITC and FP. ITC measures the direct heat change occurring due to the interaction of a pair of molecules. ITC has certain advantages, such as the capability to detect a relatively broad range of binding affinities, being a label-free method, and providing a wide set of interaction parameters, such as affinity, stoichiometry, enthalpy, and entropy of binding. To evaluate the ability of the molecules to bind AtOASS, the protein was placed in the ITC syringe and was titrated with the molecules that were placed in the ITC cell. The direct dissociation binding constant (Kd) was then extracted from the binding curve using a single binding model. Two consecutive experiments were combined using the built in ITC module to enable better quantification. A low Kd value corresponds to a stronger binding affinity.

Amaranthus palmeri = assay: Pre-emergence assay in pots; type: in vivo; details: pots sprayed with 2 ml, 5 mM, monitored 21 days
Protocol: (§1) 7×7 cm pots were prepared with 20% soil and 80% sand. Trifolium alexandrium (16 seeds), Lolium rigidum (25 seeds), Solanum nigrum (25 seeds), Amaranthus palmeri (40 seeds) or Sinapis arvensis (12 seeds) were sowed and 2 cm of strained sand was used to cover the seeds. The pots were placed in the growth room under a lighting regime of 16 hours of light and 8 hours in the dark at 23° C. The day after (except for the Solanum and Amaranthus 4-5 days after), the pots were sprayed in a chemical hood at a 45° angle with 2 ml spray solution containing 1:10 acetone or phosphate buffer dissolved active ingredient in tap water to a final concentration of 5 mM. Every 2-3 days the pots were irrigated with tap water.
(§2) Pre-emergence herbicidal activity was determined by monitoring plant growth in pots. Molecules were dissolved at the indicated concentrations below and volume of 2 ml was sprayed onto the soil, and plant growth was monitored for 21 days.

Trifolium alexandrium = assay: Pre-emergence assay in pots; type: in vivo; details: pots sprayed with 2 ml, 5 mM, monitored 21 days
Protocol: as §1, §2

Arabidopsis thaliana [2] = assay: Root elongation in plates (in planta root elongation assay); type: in vivo; details: 168 h, A. thaliana on MS medium plates, 7 days, read-out: Root-growth inhibition %
Protocol: 6-well plates were prepared in a biological hood with sterile half Murashige and Skoog mineral medium (MS; Duchefa, Haarlem, Netherlands) containing 1% sucrose (w/v), pH 5.8. Tested molecules were dissolved in 50 mM DMSO and diluted to various concentrations 1,000-fold greater than the final desired concentration the MS medium maintaining a final concentration of 0.1% DMSO. MS medium with 0.1% DMSO was used as a negative control. After 7 days the plates were scanned and the root length was calculated using the imageJ software. […] Further sterilization was done by washing the seeds with 50% hypochlorite and 0.2% Triton x-100 for 10 minutes followed by five cycles of washing with sterile water. Six seeds were placed in each well, and the plates were covered and sealed with parafilm. Plates were placed vertically at 4° C. for two days and then transferred to a growth chamber for seven days (22-24° C.) at day/light cycles of 16/8 hours. Following the in vitro evaluation, selected molecules were tested for their ability to inhibit A. thaliana root elongation on agar plates. Seeds were plated on medium containing the molecules dissolved in the indicated concentrations and root length was measured after 6 or 7 days when the root in the non-treated plate reached the end of the well.

[3] = molecular target: T2, OASS-SAT complex (AtOASS with SAT-derived peptide) (Arabidopsis thaliana, UniProt P47998); assay: Fluorescence polarization (FP) competition with FITC-labeled SAT-derived peptide bound to OASS; type: binding; details: competition with FITC-SAT peptide 200 nM, OASS 2.2 μM; for pIC50: single site inhibition model
T2 construct: GST (N, cleaved yes); made in house; host or cells: E. coli Rosetta (DE3)
T2 sequence (P47998 whole entry, one chain of several): as the sequence (P47998 whole entry) above
Protocol: Molecules were also tested for their ability to compete with the OASS binding to the SAT-derived peptide via a fluorescence polarization (FP) competition assay wherein the N-terminus labeled peptide was incubated with the AtOASS (see Examples section below). High FP values correspond to the peptide-bound state (low molecule concentrations) and low FP values correspond to the peptide-free state (low FP values). To extract the IC50, the FP data were fitted to a single site inhibition model in PRISM by GraphPad Software. The corresponding IC50 values were extracted, whereas low IC50 values correspond to molecule that better competes with the peptide binding to AtOASS. Fluorescence polarization (FP) measurements were made on samples arrayed in 96-well plates by using BioTek H1 Synergy instrument equipped with FP module. […] The peptide in a concentration of 200 nM was incubated with OASS at a concentration of 2.2 μM in each well. Variable concentrations of each molecule starting from 100 μM down to 0.048 μM were added to evaluate the ability of each molecule to compete off the FITC labeled peptide bound to OASS. Fluorescence experiments were executed with an Em/Exc wavelengths of 480/520 nm. All measurements were done in triplicate. Experimental polarization data from simple and competitive binding experiments were fitted using GraphPad Prism, with error bars representing SD. Molecules were also tested for their ability to compete with the OASS binding to the SAT-derived peptide via a fluorescence polarization (FP) competition assay. The N-terminus labeled peptide was incubated with the AtOASS in each of the wells in a 96-well plate. Various concentrations of the molecules were added and the FP values were recorded. High FP values correspond to the peptide-bound state (low molecule concentrations) and low FP values correspond to the peptide-free state (low FP values). To extract the IC50, the FP data were fitted to a single site inhibition model in graphpad prism. The corresponding IC50 values were extracted. Low IC50 values correspond to molecule that better competes with the peptide binding to AtOASS.

Arabidopsis thaliana [4] = assay: L-cysteine recovery root elongation assay; type: in vivo; details: for pIC50: Arabidopsis thaliana, read-out: IC50 of A. thaliana growth inhibition
Protocol: For the L-cysteine recovery root elongation assay, 6-well plates were prepared in a biological hood with sterile half Murashige and Skoog mineral medium (MS; Duchefa, Haarlem, Netherlands) containing 1% sucrose (w/v), pH 5.8. A stock of 10 mM L-cysteine in DDW was prepared and diluted to a final concentration of 0.03 mM into the MS medium in the presence of 25 to 1.56 μM of PJL 109. The MS medium maintained a final concentration of 0.1% DMSO. MS medium with 0.1% DMSO and 0.03 mM L-cysteine was used as a negative control. After 7 days the plates were scanned and the root length was calculated using the imageJ software.
Arabidopsis thaliana seeds were washed with 70% ethanol for 1 minute and then with sterile water. Further sterilization was done by washing the seeds with 50% hypochlorite and 0.2% Triton x-100 for 10 minutes followed by five cycles of washing with sterile water. Six seeds were placed in each well, and the plates were covered and sealed with parafilm. Plates were placed vertically at 4° C. for two days and then transferred to a growth chamber for seven days (22-24° C.) at day/light cycles of 16/8 hours.

Solanum nigrum = assay: Pre-emergence assay in pots; type: in vivo; details: pots sprayed with 2 ml, 5 mM, monitored 21 days
Protocol: as §1, §2

Sinapis arvensis = assay: Pre-emergence assay in pots; type: in vivo; details: pots sprayed with 2 ml, 5 mM, monitored 21 days
Protocol: as §1, §2

Lolium rigidum = assay: Pre-emergence assay in pots; type: in vivo; details: pots sprayed with 2 ml, 5 mM, monitored 21 days
Protocol: as §1, §2

| SMILES | pKd [1] | FP % inhibition [3] [%] | pIC50 [3] | Pre-emergence assay Germination inhibition on (%) (Amaranthus palmeri) | Pre-emergence assay Growth inhibition on (%) (Amaranthus palmeri) | Pre-emergence assay Germination inhibition on (%) (Trifolium alexandrium) | Pre-emergence assay Growth inhibition on (%) (Trifolium alexandrium) | inhibition at 50 µM (Arabidopsis thaliana [2]) [%] | effect of added cysteine on the inhibition by the compound (Arabidopsis thaliana [4]; 0.03 mM L-cysteine on agar plates, dose-response, result in words) | pIC50 (Arabidopsis thaliana [4]; 0 mM L-cysteine (no external addition of cysteine)) | pIC50 (Arabidopsis thaliana [4]; 0.03 mM L-cysteine in the medium) | Pre-emergence assay Germination inhibition on (%) (Solanum nigrum) | Pre-emergence assay Growth inhibition on (%) (Solanum nigrum) | Pre-emergence assay Germination inhibition on (%) (Sinapis arvensis) | Pre-emergence assay Growth inhibition on (%) (Sinapis arvensis) | Pre-emergence assay Germination inhibition on (%) (Lolium rigidum) | Pre-emergence assay Growth inhibition on (%) (Lolium rigidum) |
| --- | --- | --- | --- | --- | --- | --- | --- | --- | --- | --- | --- | --- | --- | --- | --- | --- | --- |
| O=C(O)c1cc(F)ccc1NS(=O)(=O)c1cnc(-c2ccccc2)s1 [PJL-47] | 5.22 | 16 | 4.17 | 66 | 20 |  |  | 88 |  |  |  |  |  |  |  |  |  |
| COc1ccc(C(=O)O)c(NS(=O)(=O)c2cnc(-c3ccc(F)cc3)s2)c1 [PJL-79] | 5.15 | 18 | 4.26 |  |  |  |  | 97 |  |  |  |  |  | 95 | 90 |  |  |
| O=C(O)c1ccccc1-c1ocnc1C(=O)Nc1nc(-c2ccc(Cl)cc2Cl)cs1 [PJL-117] |  | 10 | 3.61 |  |  |  |  | 100 |  |  |  |  |  | 90 | 80 | 0 | 60 |

Now those with a higher pIC50 [3], led by results:

| pKd [1] | FP % inhibition [3] [%] | pIC50 [3] | SMILES | Pre-emergence assay Germination inhibition on (%) (Amaranthus palmeri) | Pre-emergence assay Growth inhibition on (%) (Amaranthus palmeri) | Pre-emergence assay Germination inhibition on (%) (Trifolium alexandrium) | Pre-emergence assay Growth inhibition on (%) (Trifolium alexandrium) | inhibition at 50 µM (Arabidopsis thaliana [2]) [%] | effect of added cysteine on the inhibition by the compound (Arabidopsis thaliana [4]; 0.03 mM L-cysteine on agar plates, dose-response, result in words) | pIC50 (Arabidopsis thaliana [4]; 0 mM L-cysteine (no external addition of cysteine)) | pIC50 (Arabidopsis thaliana [4]; 0.03 mM L-cysteine in the medium) | Pre-emergence assay Germination inhibition on (%) (Solanum nigrum) | Pre-emergence assay Growth inhibition on (%) (Solanum nigrum) | Pre-emergence assay Germination inhibition on (%) (Sinapis arvensis) | Pre-emergence assay Growth inhibition on (%) (Sinapis arvensis) | Pre-emergence assay Germination inhibition on (%) (Lolium rigidum) | Pre-emergence assay Growth inhibition on (%) (Lolium rigidum) |
| --- | --- | --- | --- | --- | --- | --- | --- | --- | --- | --- | --- | --- | --- | --- | --- | --- | --- |
| 7.15 | 48 | 5.27 | O=C(O)c1ccccc1-c1ccccc1C(=O)Nc1nc(-c2ccc(Cl)cc2Cl)cs1 [PJL-109] |  |  |  |  | 89 | partially reverses the germination inhibition effect | 5.77 | 5.31 | 63 | 0 |  |  |  |  |
| 6.40 | 43 | 5.33 | COc1ccc(-c2csc(NC(=O)c3ccccc3-c3ccccc3C(=O)O)n2)cc1 [PJL-61] | 33 | 0 | 70 | 60 | 95 |  |  |  |  |  |  |  |  |  |
| 6.30 | 41 | 5.44 | COc1ccc(-c2csc(NC(=O)c3ccccc3-c3ccccc3C(=O)O)n2)c(Cl)c1 [PJL-116] |  |  | 75 | 80 | 92 |  |  |  |  |  |  |  |  |  |
